The subject of this experiment is murine neural precursor cells (neurosphere cultures). Briefly: HTS of LOPAC library against secondary neurosphere cultures, MTT proliferation assay at 3 μM, day 7 (z score, P value). It counts as cell-based, mouse. Background: Tetrazolium dyes change colour on reduction, which living cells bring about.
Where [1] appears, read: LOPAC screen, neurosphere MTT proliferation, 3 μM, day 7.
[2] abbreviates: yes/no: significantly inhibited neurosphere proliferation (P<0.01) in primary screen.
[3] abbreviates: LOPAC primary screen, neurosphere MTT proliferation, 3 μM, day 7.
Setting [4] is: LOPAC library screen, 3 μM, MTT, secondary neurosphere cultures, day 7.
Where [5] appears, read: yes/no: significantly inhibited neurosphere proliferation (P<0.01) in the primary screen.
Setting [6] is: primary LOPAC screen, 3 μM, MTT, neurosphere proliferation.
[7] abbreviates: yes/no: significantly inhibited neurosphere proliferation in the primary screen.
Setting [8] is: yes = significantly inhibited neurosphere proliferation (P<0.01) in the primary screen.
Where [9] appears, read: yes/no: significantly inhibited neurosphere proliferation in primary screen.
The mark [10] stands for this setting: LOPAC library screen at 3 μM, MTT, secondary neurosphere cultures, screened in singlets.
Where [11] appears, read: LOPAC library screen, 3 μM, MTT, neurosphere cultures.

Each structure is given as a SMILES string. Like-named read-outs stand apart in the source and are kept apart here.

`C#CCn1c(=O)c2c(ncn2C)n(C)c1=O` [3,7-Dimethyl-I-propargylxanthine]: the “Z Score” value is on record as 1.454. Under setting [1], the Z score is listed as 1.454. Under setting [2], the Activity entry was “no”.
For `Fc1ccc(C(OCCCc2c[nH]cn2)c2ccc(F)cc2)cc1` [3-(1H-Imidazol-4-yl)propyl di(p-fluorophenyl)methyl ether], under setting [3], the Z score is reported as −0.015. Besides, the Activity entry under setting [2] is “no”.
On to `NCCCS(=O)(=O)O.[Na]` [3-Amino-1-propanesulfonic acid sodium], for which, under setting [4], the “Z Score” value is recorded as −6.691. Besides, the Z score under setting [3] is −6.691. Further, under setting [5], the Activity entry is recorded as “yes”.
With `N#CCCN.N#CCCN.O=C(O)/C=C/C(=O)O` [3-Aminopropionitrile fumarate], the “Z Score” value was 1.234. The Z score under setting [6] worked out at 1.234. In addition, the Activity entry under setting [7] was “no”.
As to `NCCCP(=O)(O)O` [3-Aminopropylphosphonic acid], the “Z Score” value is listed as −2.331. This molecule returned a Z score under setting [3] of −2.331. Further, the Activity entry under setting [5] is on record as “yes”.
As for `O=[N+]([O-])c1cccc2c(Br)n[nH]c12` [3-Bromo-7-nitroindazole], for the setting “168 h, 3 µM”, the “Z Score” value is −1.68 and the Z score is −1.680. Moreover, the Activity result under setting [7] is recorded as “no”.
With `Cl.Cl.NNCc1cccc(O)c1` [3-Hydroxybenzylhydrazine dihydrochloride], the “Z Score” value is listed as −0.4866. Further, the Z score under setting [3] is listed as −0.487. For the same molecule, the Activity entry under setting [2] is listed as “no”.
Consider `N[C@@H](Cc1ccc(O)c(I)c1)C(=O)O` [3-Iodo-L-tyrosine], for which, for the setting “168 h, 3 µM”, the “Z Score” value is −0.04844 and the Z score is listed as −0.048. In addition, the Activity entry under setting [2] was “no”.
In the case of `CC(C)Cn1c(=O)n(C)c(=O)c2[nH]cnc21` [3-Isobutyl-1-methylxanthine], under “168 h, 3 µM”, the “Z Score” value is recorded as −0.774 and the Z score was −0.774. Further, the Activity entry under setting [2] is reported as “no”.
For `COc1ccc2c(c1)[C@@]13CCCC[C@H]1[C@@H](C2)NCC3.Cl` [3-Methoxy-morphanin hydrochloride], the “Z Score” value was −7.714. This molecule also had a Z score under setting [3] of −7.714. Besides, under setting [5], the Activity result is “yes”.
Turning to `Cc1nnc2ccc(-c3cccc(C(F)(F)F)c3)nn12` [3-Methyl-6-(3-[trifluoromethyl]phenyl)-1,2,4-triazolo[4,3-b]pyridazine], the “Z Score” value came out at 0.09095. This molecule also returned a Z score under setting [3] of 0.091. Besides, the Activity entry under setting [8] is recorded as “no”.
Consider `Cl.N=c1c[n+](N2CCOCC2)[n-]o1` [3-Morpholinosydnonimine hydrochloride], for which, for the setting “168 h, 3 µM”, the “Z Score” value is on record as −1.324 and the Z score is reported as −1.324. Also, under setting [8], the Activity result is “no”.
Turning to `O=C(O)CC[N+](=O)[O-]` [3-Nitropropionic acid], the “Z Score” value was −0.5631. In addition, the Z score under setting [3] is −0.563. The Activity entry under setting [8] is listed as “no”.
As to `Cl.NCC#Cc1ccccc1` [3-Phenylpropargylamine hydrochloride], the “Z Score” value is reported as −2.043. Also, the Z score under setting [3] is reported as −2.043. Moreover, under setting [9], the Activity result is “no”.
For `CN1C2CCC1CC(OC(=O)c1cc(Cl)cc(Cl)c1)C2` (centres unmarked) [3-Tropanyl-3,5-dichlorobenzoate], the “Z Score” value is −9.272. For the same molecule, the Z score under setting [3] is reported as −9.272. Moreover, the Activity result under setting [5] is “yes”.
Take `CN1[C@@H]2CC[C@H]1CC(OC(=O)c1c[nH]c3ccccc13)C2.Cl` (some centres unmarked) [3-Tropanyl-indole-3-carboxylate hydrochloride]: the “Z Score” value was −1.528. Further, under setting [6], the Z score is given as −1.528. The Activity result under setting [7] is recorded as “no”.
In the case of `NC(=O)c1cccc(N)c1` [3-aminobenzamide], the “Z Score” value is −1.034. Also, the Z score under setting [3] is recorded as −1.034. Moreover, the Activity result under setting [9] was “no”.
In the case of `Nc1nccc2c1ncn2[C@@H]1O[C@H](CO)[C@@H](O)[C@H]1O` [3-deazaadenosine], under setting [10], the “Z Score” value amounted to 1.77. The molecule also showed a Z score under setting [1] of 1.770. For the same molecule, under setting [2], the Activity result is reported as “no”.
As for `CCCn1c(=O)[nH]c(=O)c2[nH]cnc21` [3-n-Propylxanthine], the “Z Score” value (LOPAC library screen at 3 μM, secondary neurosphere cultures, MTT) was −1.094. The molecule also yielded a Z score under setting [3] of −1.094. Further, the Activity entry under setting [8] is “no”.
With `N/C(=N\C(=O)c1nc(Cl)c(N)nc1N)NCc1ccc(Cl)c(Cl)c1` [3′,4′-Dichlorobenzamil], the “Z Score” value was −2.581. Further, the Z score under setting [3] is −2.581. Moreover, the Activity result under setting [5] is recorded as “yes”.
As to `Cc1cn([C@H]2C[C@H](N=[N+]=[N-])[C@@H](CO)O2)c(=O)[nH]c1=O` [3′-Azido-3′-deoxythymidine], the Activity entry was “yes”. The “Z Score” value under setting [4] was −5.023. For the same molecule, the Z score under setting [3] is reported as −5.023.
`Cl.NCCc1ccc(S(=O)(=O)F)cc1` [4-(2-Aminoethyl)benzenesulfonyl fluoride hydrochloride]: the “Z Score” value was 0.3634. Further, the Z score under setting [6] amounted to 0.363. In addition, the Activity result under setting [7] is reported as “no”.
As to `Nc1ccc2c3c(cccc13)C(=O)NC2=O` [4-Amino-1,8-naphthalimide], the “Z Score” value under setting [10] stood at 1.875. Besides, under setting [3], the Z score is reported as 1.875. Moreover, the Activity entry under setting [9] is “no”.
`Cl.Cl.N=C(N)c1ccc(N)cc1` [4-Aminobenzamidine dihydrochloride]: the “Z Score” value is reported as −1.287. For the same molecule, the Z score under setting [3] was −1.287. In addition, the Activity entry under setting [8] is “no”.
In the case of `Nc1ccncc1` [4-Aminopyridine], the “Z Score” value under setting [4] was −1.516. For the same molecule, the Z score under setting [3] is listed as −1.516. In addition, the Activity result under setting [9] is recorded as “no”.
`C[C@]12CCC(=O)C(O)=C1CC[C@@H]1[C@@H]2CC[C@]2(C)C(=O)CC[C@@H]12` [4-Androsten-4-ol-3,17-dione]: the “Z Score” value came to 0.1944. Moreover, under setting [6], the Z score amounted to 0.194. The Activity result under setting [7] was “no”.
Regarding `C[C@]12CCC(=O)C=C1CC[C@@H]1[C@@H]2CC[C@]2(C)C(=O)CC[C@@H]12` [4-Androstene-3,17-dione], the “Z Score” value is reported as −0.6917. This molecule also displayed a Z score under setting [6] of −0.692. Moreover, the Activity result under setting [7] is “no”.
As to `O=C(O)c1cc[c]([Hg][Cl])cc1` [4-Chloromercuribenzoic acid], the “Z Score” value is listed as −0.03193. Under setting [1], this molecule returned a Z score of −0.032. For the same molecule, the Activity entry under setting [2] is listed as “no”.
Turning to `C[N+]1(C)CCC(OC(=O)C(c2ccccc2)c2ccccc2)CC1.[I-]` [4-DAMP methiodide], the “Z Score” value under setting [11] was found to be 0.3311. The molecule further came in with a Z score under setting [1] of 0.331. The Activity entry under setting [2] is listed as “no”.
`Cl.O=C(OC1CCN(CCCl)CC1)C(c1ccccc1)c1ccccc1` [4-Diphenylacetoxy-N-(2-chloroethyl)piperidine hydrochloride]: the “Z Score” value was found to be 0.8645. Besides, the Z score under setting [3] is reported as 0.864. Further, the Activity result under setting [2] is “no”.
In the case of `COc1cc(CC(=O)O)ccc1O` [4-Hydroxy-3-methoxyphenylacetic acid], the “Z Score” value was −0.5673. Also, the Z score under setting [3] is −0.567. In addition, under setting [2], the Activity result is reported as “no”.
The like results for `NNC(=O)c1ccc(O)cc1` [4-Hydroxybenzhydrazide] were, in that order, −0.7888, −0.789 and “no”.
With `Cl.NCCc1ccc(O)cc1` [4-Hydroxyphenethylamine hydrochloride], the “Z Score” value came to 1.03. The molecule further gave a Z score under setting [6] of 1.030. For the same molecule, the Activity result under setting [7] is given as “no”.
As to `O=C(O)C=Cc1c[nH]cn1` [4-Imidazoleacrylic acid], the “Z Score” value is on record as −0.2635. Under setting [6], this molecule yielded a Z score of −0.264. Also, the Activity result under setting [7] was “no”.
In the case of `Cl.OCc1c[nH]cn1` [4-Imidazolemethanol hydrochloride], the “Z Score” value is given as −2.077. This molecule also displayed a Z score under setting [3] of −2.077. Moreover, the Activity entry under setting [2] is listed as “no”.
Turning to `Cc1cn[nH]c1.Cl` [4-Methylpyrazole hydrochloride], the “Z Score” value is listed as 1.042. For the same molecule, under setting [3], the Z score amounted to 1.042. Moreover, the Activity result under setting [8] is reported as “no”.
As to `N#Cc1c(-c2ccccc2)no[n+]1[O-]` [4-Phenyl-3-furoxancarbonitrile], under “168 h, 3 µM”, the “Z Score” value is 0.9313 and the Z score turned out to be 0.931. For the same molecule, the Activity entry under setting [9] was “no”.
On to `CC1(C)CCC=[N+]1[O-]` [5,5-Dimethyl-1-pyrroline-N-oxide], for which, where the note is “168 h, 3 µM”, the “Z Score” value is listed as −1.666 and the Z score is −1.666. The Activity entry under setting [2] is listed as “no”.
With `O=C1NC(=O)C(c2ccccc2)(c2ccccc2)N1` [5,5-Diphenylhydantoin], under setting [11], the “Z Score” value was found to be 1.383. Under setting [1], this molecule had a Z score of 1.383. Moreover, the Activity entry under setting [2] was “no”.
Turning to `O=C(O)c1cc(=O)c2c(Cl)cc(Cl)cc2[nH]1` [5,7-Dichlorokynurenic acid], the “Z Score” value under setting [11] amounted to 0.9011. The same molecule had a Z score under setting [3] of 0.901. Also, the Activity result under setting [2] is “no”.
Consider `CN(C)c1nc(N)c(C(=O)NC(=N)N)nc1Cl.Cl` [5-(N,N-Dimethyl)amiloride hydrochloride], for which the “Z Score” value amounted to 2.396. The Z score under setting [6] came to 2.396. Moreover, under setting [7], the Activity result is reported as “no”.
Turning to `N=C(N)NC(=O)c1nc(Cl)c(N2CCCCCC2)nc1N` [5-(N,N-hexamethylene)amiloride], the “Z Score” value under setting [11] turned out to be 0.03855. Under setting [6], this molecule displayed a Z score of 0.039. The Activity entry under setting [7] is recorded as “no”.
Consider `CCN(c1nc(N)c(C(=O)N=C(N)N)nc1Cl)C(C)C` [5-(N-Ethyl-N-isopropyl)amiloride], for which the “Z Score” value was −0.2886. Further, the Z score under setting [6] is listed as −0.289. For the same molecule, under setting [7], the Activity result is recorded as “no”.
